Assay results as given in patent publication US6528494B2 (priority 1996, dated 2003).
Structures can show the parent of a compound that is named as a salt.

What was measured:
Type in all cases: cell-based
adenosine 2a receptor = adenosine 2a receptor (Homo sapiens, UniProt P29274); assay: Agonist activity against adenosine 2a receptor (CHO cells, cAMP/SPAP reporter); conditions: CHO cells transfected with human receptor; basal cAMP via SPAP; mean of all the versions tested
Method: (§1) (1) Agonist activity against adenosine 2a, adenosine 1 and adenosine 3 receptor subtypes.
(§2) The effect of test compounds was determined by their effects on basal levels of cAMP (A2a) or on forskolin-enhanced cAMP (A1 and A3) as reflected by changes in levels of SPAP.

adenosine 1 receptor = molecular target: T1, adenosine 1 receptor (Homo sapiens, UniProt P30542); assay: Agonist activity against adenosine 1 receptor (CHO cells, forskolin-enhanced cAMP/SPAP reporter); conditions: CHO cells transfected with human receptor; forskolin-enhanced cAMP via SPAP; mean of all the versions tested
T1 sequence (P30542 1-326): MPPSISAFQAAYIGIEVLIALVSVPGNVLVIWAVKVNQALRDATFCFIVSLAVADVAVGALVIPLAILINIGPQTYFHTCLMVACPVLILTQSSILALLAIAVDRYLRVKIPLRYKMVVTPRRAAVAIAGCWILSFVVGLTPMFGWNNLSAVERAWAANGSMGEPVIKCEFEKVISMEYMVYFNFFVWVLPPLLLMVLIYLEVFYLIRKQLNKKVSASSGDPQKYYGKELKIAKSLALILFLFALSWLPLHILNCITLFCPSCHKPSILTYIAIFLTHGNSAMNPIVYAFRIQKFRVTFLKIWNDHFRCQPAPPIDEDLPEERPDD
Method: as §1, §2

adenosine 3 receptor = molecular target: T2, adenosine 3 receptor (Homo sapiens, UniProt P0DMS8); assay: Agonist activity against adenosine 3 receptor (CHO cells, forskolin-enhanced cAMP/SPAP reporter); conditions: CHO cells transfected with human receptor; forskolin-enhanced cAMP via SPAP; mean of all the versions tested
T2 sequence (P0DMS8 1-318): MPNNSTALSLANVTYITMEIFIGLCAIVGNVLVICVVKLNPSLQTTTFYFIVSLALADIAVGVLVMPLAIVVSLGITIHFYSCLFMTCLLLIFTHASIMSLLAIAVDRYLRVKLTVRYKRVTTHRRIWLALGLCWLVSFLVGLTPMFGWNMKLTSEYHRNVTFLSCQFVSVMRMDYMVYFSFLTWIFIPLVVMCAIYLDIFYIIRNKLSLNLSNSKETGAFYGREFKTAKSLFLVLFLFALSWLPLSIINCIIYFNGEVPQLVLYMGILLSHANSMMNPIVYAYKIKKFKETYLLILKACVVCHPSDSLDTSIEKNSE
Method: as §1, §2

Sequence of adenosine 2a receptor (P29274 whole entry): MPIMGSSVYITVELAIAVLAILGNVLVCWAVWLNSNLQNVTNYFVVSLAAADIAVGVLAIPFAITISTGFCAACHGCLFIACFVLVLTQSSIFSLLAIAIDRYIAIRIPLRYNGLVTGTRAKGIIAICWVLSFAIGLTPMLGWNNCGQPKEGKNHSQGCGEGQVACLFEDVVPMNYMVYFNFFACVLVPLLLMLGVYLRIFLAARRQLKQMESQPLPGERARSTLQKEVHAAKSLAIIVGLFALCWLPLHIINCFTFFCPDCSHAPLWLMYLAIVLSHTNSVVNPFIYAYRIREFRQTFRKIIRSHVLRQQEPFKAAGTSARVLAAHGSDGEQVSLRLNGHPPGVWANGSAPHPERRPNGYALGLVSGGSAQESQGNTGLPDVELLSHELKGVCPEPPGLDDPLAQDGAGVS

| Compound | A2a EC50 as a ratio of that of NECA (adenosine 2a receptor) | A1 EC50 as a ratio of that of NECA (adenosine 1 receptor) | A3 EC50 as a ratio of that of NECA (adenosine 3 receptor) |
| --- | --- | --- | --- |
| CCn1nnc([C@H]2O[C@@H](n3cnc4c(NCC(c5ccccc5)c5ccccc5)nc(NCCO)nc43)[C@H](O)[C@@H]2O)n1.O=C(O)C(F)(F)F [Example 47, (2R,3R,4S,5R)-2-[6-(2,2-Diphenyl-ethylamino)-2-(2-hydroxy-ethylamino)-purin-9-yl]-5-(2-ethyl-2H-tetrazol-5-yl)-tetrahydro-furan-3,4-diol Trifluoroacetate] | 1.06 | 27.40 | >216 |
| CCn1nnc([C@H]2O[C@@H](n3cnc4c(NCC(c5ccccc5)c5ccccc5)nc(NCCN5CCCCC5)nc43)[C@H](O)[C@@H]2O)n1.O=C(O)C(F)(F)F.O=C(O)C(F)(F)F [Example 46] | 1.37 | 64.00 | >216 |
| CCn1nnc([C@H]2O[C@@H](n3cnc4c(NCC(c5ccccc5)c5ccccc5)nc(NC5CCS(=O)(=O)CC5)nc43)[C@H](O)[C@@H]2O)n1.O=C(O)C(F)(F)F [Example 115, (2R,3R,4S,5R)-2-[6-(2,2-Diphenyl-ethylamino)-2-(1,1--dioxo-hexahydro-1.lamda.6-thiopyran-4-ylamino)-purin-9-yl]-5-(2-ethyl-2H-tetrazol-5-yl)-tetrahydro-furan-3,4-diol Trifluoroacetate] | 0.36 | 37.7 | >297.0 |
| CCn1nnc([C@H]2O[C@@H](n3cnc4c(N)nc(NCCc5cn(C)cn5)nc43)[C@H](O)[C@@H]2O)n1.O=CO [Example 54, (2R,3R,4S,5R)-2-{6-Amino-2-[2-(1-methyl-1H-imidazol-4-yl)-ethylamino]-purin-9-yl}-5-(2-ethyl-2H-tetrazol-5-yl)-tetrahydro-furan-3,4-diol Formate] | 1.16 | 267.60 | >175 |
| Cn1nnc([C@H]2O[C@@H](n3cnc4c(N)nc(NC5CC6CCC5C6)nc43)[C@H](O)[C@@H]2O)n1.O=CO (stereo partly drawn) [Example 39, (2R,3R,4S,5R)-2-[6-Amino-2-(bicyclo[2.2.1]hept-2-ylamino)-purin-9-yl]-5-(2-methyl-2H-tetrazol-5-yl)-tetrahydro-furan-3,4-diol Formate] | 0.31 | 1429 | >315 |
| Cn1cnc(CCNc2nc(NCc3cccc(I)c3)c3ncn([C@@H]4O[C@H](c5nnn(C)n5)[C@@H](O)[C@H]4O)c3n2)c1.O=CO [Example 29, (2R,3R,4S,5R)-2-{6-(3-Iodo-benzylamino)-2-[2-(1-methyl-1H-imidazol-4-yl)-ethylamino]-purin-9-yl}-5-(2-methyl-2H-tetrazol-5-yl)-tetrahydro-furan-3,4-diol Formate] | 0.87 | >3561 | >105 |

More lines, now with the values ahead:

| A2a EC50 as a ratio of that of NECA (adenosine 2a receptor) | A1 EC50 as a ratio of that of NECA (adenosine 1 receptor) | A3 EC50 as a ratio of that of NECA (adenosine 3 receptor) | Compound |
| --- | --- | --- | --- |
| 4.53 | >11750.00 | >89 | CCC(CC)Nc1nc(NC2CCCC2O)nc2c1ncn2C1OC(c2nnn(C)n2)C(O)C1O.O=CO.O=CO [Example 88, (2R,3R,4S,5R)-2-[6-(1-Ethyl-propylamino)-2-(2R-hydroxy-(R)-cyclopentylamino)-purin-9-yl]-5-(2-methyl-2H-tetrazol-5-yl)-tetrahydro-furan-3,4-diol Diformate] |
| 6.11 | 192.90 | >179 | CCn1nnc(C2OC(n3cnc4c(NCCN5CCOCC5)nc(NC(CO)Cc5ccccc5)nc43)C(O)C2O)n1 [Example 85, (2R,3S,4R,5R)-2-(2-Ethyl-2H-tetrazol-5-yl)-5-[2-(1S-hydroxymethyl-2-phenyl-ethylamino)-6-(2-morpholin-4-yl-ethylamino)-purin-9-yl]-tetrahydro-furan-3,4-diol Formate] |
| 1.07 | >2999.00 | >233 | Cn1nnc(C2OC(n3cnc4c(NCc5cccc(I)c5)nc(NC5CCC(N)CC5)nc43)C(O)C2O)n1.O=CO.O=CO [Example 105, (2R,3R,4S,5R)-2-[2-(trans-4-Amino-cyclohexylamino)-6-(3-iodo-benzylamino)-purin-9-yl]-5-(2-methyl-2H-tetrazol-5-yl)-tetrahydro-furan-3,4-diol bis(Formate)] |
| 2.79 | 201.70 | >171 | CCn1nnc(C2OC(n3cnc4c(NCCc5ccccc5)nc(NC5CCNC5)nc43)C(O)C2O)n1 [Example 74, (2R,3S,4R,5R)-2-(2-Ethyl-2H-tetrazol-5-yl)-5-[6-phenethylamino-2-(pyrrolidin-3R-ylamino)-purin-9-yl]-tetrahydro-furan-3,4-diol bis(Formate)] |
| 0.52 | 119.1 | >348 | Cn1nnc(C2OC(n3cnc4c(N)nc(NC(CO)Cc5ccccc5)nc43)C(O)C2O)n1 [Example 37, (2R,3R,4S,5R)-2-[6-Amino-2-(1S-hydroxymethyl-2-phenyl-ethylamino)-purin-9-yl]-5-(2-methyl-2H-tetrazol-5-yl)-tetrahydro-furan-3,4-diol Formate] |
| 2.37 | 77.10 | >164 | CC(C)n1nnc(C2OC(n3cnc4c(NC5CCCC5)nc(NCCN5CCCCC5)nc43)C(O)C2O)n1 [Example 80, (2R,3R,4S,5R)-2-[6-Cyclopentylamino-2-(2-piperidin-1-yl-ethylamino)-purin-9-yl]-yl)-5-(2-isopropyl-2H-tetrazol-5-yl)-tetrahydro-furan-3,4-diol bis(Formate)] |
| 5.56 | 520.50 | >189 | CCn1nnc(C2OC(n3cnc4c(NCC(c5ccccc5)c5ccccc5)nc(NCCNC(=N)N)nc43)C(O)C2O)n1 (stereo not drawn) [Example 82, N-(2-{6-(2,2-Diphenyl-ethylamino)-9-[5R-(2-ethyl-2H-tetrazol-5-yl)-3R,4S-Dihydroxy-tetrahydro-furan-2R-yl]-9H-purin-2-ylamino}-ethyl)-guanidine bis(Trifluoroacetate)] |
| 2.39 | 385.90 | >411 | Cn1nnc(C2OC(n3cnc4c(NCC(c5ccccc5)c5ccccc5)nc(NC5CCNC5)nc43)C(O)C2O)n1 [Example 94, (2R,3R,4S,5R)-2-[6-(2,2-Diphenyl-ethylamino)-2-(pyrrolidin-3R-ylamino)-purin-9-yl]-5-(2-methyl-2H-tetrazol-5-yl)-tetrahydro-furan-3,4-diol Diformate] |
| 5.75 | 818.40 | >171 | CCn1nnc(C2OC(n3cnc4c(NCCC5CCCCC5)nc(NC5CCNC5)nc43)C(O)C2O)n1 [Example 73, (2R,3R,4S,5R)-2-[6-(2-Cyclohexyl-ethylamino)-2-(pyrrolidin-3S-ylamino)-purin-9-yl]-5-(2-ethyl-2H-tetrazol-5-yl)-tetrahydro-furan-3,4-diol bis(Formate)] |
